# Results published in patent publication US20140357487A1, “PLANTS HAVING INCREASED TOLERANCE TO HERBICIDES” (BASF SE, priority 2011, published 2014).
# What was measured:
# [1] = target: T1, Arabidopsis HPPD variant M335H, P336A (Arabidopsis thaliana, UniProt P93836, M335H/P336A); experiment: HPPD activity assay, Arabidopsis HPPD mutant M335H, P336A; type: biochemical; settings: normalized on Arabidopsis wild-type HPPD
# T1 construct: PCR-based site directed mutagenesis of pEXP5-NT/TOPO®-AtHPPD is done; His6 (N); made in house; host or cells: E. coli BL21 (DE3)
# Protocol: HPPD produces homogentisic acid and CO2 from 4-hydroxyphenylpyruvate (4-HPP) and O2. The activity assay for HPPD is based on the analysis of homogentisic acid by reversed phase HPLC.
# The assay mixture can contain 150 mM potassium phosphate buffer pH 7.0, 50 mM L-ascorbic acid, 1 μM FeSO4 and 7 μg of purified enzyme in a total volume of 1 ml.
# Inhibitors are dissolved in DMSO (dimethylsulfoxide) to a concentration of 20 mM or 0.5 mM, respectively. From this stock solution serial five-fold dilutions are prepared in DMSO, which are used in the assay. The respective inhibitor solution accounts for 1% of the assay volume. […] After a preincubation of 30 min the reaction is started by adding 4-HPP to a final concentration of 0.1 mM. The reaction is allowed to proceed for 120 min at room temperature. The reaction is stopped by addition of 100 μl of 4.5 M phosphoric acid.
# Activities are normalized by setting the uninhibited enzyme activity to 100%. IC50 values are calculated using non-linear regression.
# The assay mixture can contain 150 mM potassium phosphate buffer pH 7.0, 50 mM L-ascorbic acid, 100 μM Catalase (Sigma-Aldrich), 1 μM FeSO4 and 0.2 units of purified HPPD enzyme in a total volume of 505 μl. 1 unit is defined as the amount of enzyme that is required to produce 1 nmol of HGA per minute at 20° C.
# Inhibitors are dissolved in DMSO (dimethylsulfoxide) to a concentration of 0.5 mM. […] IC50 values are calculated using non-linear regression. […]
# Purified, mutant HPPD enzymes are obtained by the methods described above. […] Apparent michaelis constants (Km) and maximal reaction velocities (Vmax) are calculated by non-linear regression with the software GraphPad Prism 5 (GraphPad Software, La Jolla, USA) using a substrate inhibition model.
# Field performance of the optimized HPPD enzyme, which is used as a herbicide tolerance trait may depend not only on its lack of sensitivity towards HPPD inhibiting herbicides but also on its activity. To assess the potential performance of a herbicide tolerance trait a tolerance index (TI) is calculated using the following formula: […]
# [2] = tested on: transgenic corn plants, Arabidopsis HPPD, event SDM-71884; experiment: Greenhouse testing of transgenic corn plants, Arabidopsis HPPD; type: in vivo, Zea mays; settings: corn SDM-71884, 5 days after herbicide treatment, average of 8 T1
# Description: Various methods for the production of stably transformed plants are well known in the art. Coumarone-derivative herbicide tolerant soybean (Glycine max) or corn (Zea mays) plants can be produced by a method described by Olhoft et al. (US patent 2009/0049567). Briefly, HPPD or HST encoding polynucleotides are cloned into a binary vector using standard cloning techniques as described by Sambrook et al. (Molecular cloning (2001) Cold Spring Harbor Laboratory Press). The final vector construct contains an HPPD or HST encoding sequence flanked by a promoter sequence (e.g. the ubiquitin promoter (PcUbi) sequence) and a terminator sequence (e.g. the nopaline synthase terminator (NOS) sequence) and a resistance marker gene cassette (e.g. AHAS) (FIG. 2). Optionally, the HPPD or HST gene can provide the means of selection. Agrobacterium-mediated transformation is used to introduce the DNA into soybean's axillary meristem cells at the primary node of seedling explants. After inoculation and co-cultivation with Agrobacteria, the explants are transferred to shoot induction medium without selection for one week. The explants are subsequently transferred to shoot induction medium with 1-3 μM imazapyr (Arsenal) for 3 weeks to select for transformed cells. Explants with healthy callus/shoot pads at the primary node are then transferred to shoot elongation medium containing 1-3 μM imazapyr until a shoot elongates or the explant dies. After regeneration, transformants are transplanted to soil in small pots, placed in growth chambers (16 hr day/8 hr night; 25° C. day/23° C. night; 65% relative humidity; 130-150 mE m−2 s−1) and subsequently tested for the presence of the T-DNA via Taqman analysis. After a few weeks, healthy, transgenic positive, single copy events are transplanted to larger pots and allowed to grow in the growth chamber. Transformation of corn plants is done by a method described by McElver and Singh (WO 2008/124495). Plant transformation vector constructs containing HPPD or HST sequences are introduced into maize immature embryos via Agrobacterium-mediated transformation. Transformed cells are selected in selection media supplemented with 0.5-1.5 μM imazethapyr for 3-4 weeks. Transgenic plantlets are regenerated on plant regeneration media and rooted afterwards. Transgenic plantlets are subjected to TaqMan analysis for the presence of the transgene before being transplanted to potting mixture and grown to maturity in greenhouse. Arabidopsis thaliana is transformed with HPPD or HST sequences by floral dip method as described by McElver and Singh (WO 2008/124495). Transgenic Arabidopsis plants are subjected to Tag Man analysis for analysis of the number of integration loci. Transformation of Oryza sativa (rice) are done by protoplast transformation as described by Peng et al. (U.S. Pat. No. 6,653,529)
# Transgenic plants expressing heterologous HPPD or HST enzymes are tested for tolerance against coumarone-derivative herbicides in greenhouse experiments.
# For post emergence treatment, the test plants are first grown to a height of 3 to 15 cm, depending on the plant habit, and only then treated with the herbicides. For this purpose, the test plants are either sown directly and grown in the same containers, or they are first grown separately and transplanted into the test containers a few days prior to treatment.
# Depending on the species, the plants are kept at 10-25° C. or 20-35° C. The test period extends over 3 weeks. During this time, the plants are tended and their response to the individual treatments is evaluated. […] Tolerance to coumarone-derivative herbicides can also be assessed in Arabidopsis. In this case transgenic Arabidopsis thaliana plants are assayed for improved tolerance to coumarone-derivative herbicides in 48-well plates. Seeds are surface sterilized by stirring for 5 min in ethanol+water (70+30 by volume), rinsing one time with ethanol+water (70+30 by volume) and two times with a sterile, deionized water. […]
# T1 sequence (P93836 whole entry M335H/P336A): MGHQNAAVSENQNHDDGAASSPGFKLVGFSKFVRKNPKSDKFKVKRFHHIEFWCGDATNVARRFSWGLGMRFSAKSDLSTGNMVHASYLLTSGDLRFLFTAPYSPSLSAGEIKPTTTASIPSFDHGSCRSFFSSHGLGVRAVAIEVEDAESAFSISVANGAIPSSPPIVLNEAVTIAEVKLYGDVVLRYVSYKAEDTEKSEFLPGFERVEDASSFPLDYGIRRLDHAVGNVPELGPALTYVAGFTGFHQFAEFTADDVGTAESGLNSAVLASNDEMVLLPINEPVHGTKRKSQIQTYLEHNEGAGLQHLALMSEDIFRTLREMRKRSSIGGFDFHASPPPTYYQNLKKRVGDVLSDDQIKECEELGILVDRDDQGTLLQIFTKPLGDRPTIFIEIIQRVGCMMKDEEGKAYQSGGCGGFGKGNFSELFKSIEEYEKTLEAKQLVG
SMILES,Normalized tolerance index TI [1],"Injury evaluation, scale of 1-100, bleaching phenotype ([2]; 2.5 g/ha)","Injury evaluation, scale of 1-100, bleaching phenotype ([2]; 10 g/ha)","Injury evaluation, scale of 1-100, bleaching phenotype ([2]; 40 g/ha)","Injury evaluation, scale of 1-100, bleaching phenotype ([2]; 6.25 g/ha)","Injury evaluation, scale of 1-100, bleaching phenotype ([2]; 25 g/ha)","Injury evaluation, scale of 1-100, bleaching phenotype ([2]; 100 g/ha)"
"CC1(C)c2cccnc2C(O)=C(c2ccc(Cl)nc2Cl)S1(=O)=O [Inhibitor 2, 7-(2,6-dichloro-3-pyridyl)-5,5-dimethyl-6,6-dioxo-thiopyrano[4,3-b]pyridin-8-ol]",2.8,4,13,4,,,
"Cc1c(C(=O)c2cnn(C)c2O)ccc(S(C)(=O)=O)c1C1=NOCC1 [Topramezone, reference compound]",,,,,0,0,1
"CC1=NOC(c2c(Cl)ccc(C3=C(O)c4ncccc4C(C)(C)S3(=O)=O)c2Cl)C1 (centres unmarked) [Inhibitor 1, 7-[2,4-dichloro-3-(3-methyl-4,5-dihydroisoxazol-5-yl)phenyl]-5,5-dimethyl-6,6-dioxo-thiopyrano[4,3-b]pyridin-8-ol]",1.9,,,,,,
